From ChEMBL document CHEMBL3885861, “Open TG-GATES”

Species: Rattus norvegicus
Experiment: Open TG-GATES - Regimen: Daily Repeat
Assay type: toxicity, organism-based, Sprague-Dawley
Design: regimen Daily Repeat, gender Male, age 6 weeks
Conditions: in vivo, po, 0 mg/kg, route gavage, dose level Control; for APTT / Bas / Eos / Fbg / Hb / Ht / Lym / MCH / MCHC / MCV / Mono / Neu / PT / Plat / RBC / Ret / WBC: tissue Blood; for KIDNEY_L / KIDNEY_R / KIDNEY_TOTAL: tissue Kidney; for LIVER: tissue Liver; for A/G / ALP / ALT / AST / BUN / CRE / Ca / Cl / DBIL / GLC / IP / K / LDH / Na / PL / RALB / TBIL / TC / TG / TP / gamma-GTP: tissue Plasma

SMILES: CCCCNC(=O)NS(=O)(=O)c1ccc(C)cc1 [TOLBUTAMIDE]
- TERMINAL_BW (72 h, time 3 day): 235.2 g
- APTT (72 h, time 3 day): 16.5 s
- Bas (72 h, time 3 day): 0.2%
- Eos (72 h, time 3 day): 1%
- Fbg (72 h, time 3 day): 315.4 mg/dL
- Hb (72 h, time 3 day): 14 g/dL
- Ht (72 h, time 3 day): 43.2%
- Lym (72 h, time 3 day): 74.6%
- MCH (72 h, time 3 day): 20.4 pg
- MCHC (72 h, time 3 day): 32.4%
- MCV (72 h, time 3 day): 63 fL
- Mono (72 h, time 3 day): 2.2%
- Neu (72 h, time 3 day): 21.6%
- PT (72 h, time 3 day): 13 s
- Plat (72 h, time 3 day): 112.3 x10_4/uL
- RBC (72 h, time 3 day): 686.4 x10_4/ul
- Ret (72 h, time 3 day): 6.8%
- WBC (72 h, time 3 day): 101.6 x10_2/uL
- KIDNEY_L (72 h, time 3 day): 1 g
- KIDNEY_R (72 h, time 3 day): 1 g
- KIDNEY_TOTAL (72 h, time 3 day): 2 g
- LIVER (72 h, time 3 day): 10.6 g
- A/G (72 h, time 3 day): 0.9
- ALP (72 h, time 3 day): 1867 IU/L
- ALT (72 h, time 3 day): 51 IU/L
- AST (72 h, time 3 day): 75.2 IU/L
- BUN (72 h, time 3 day): 15 mg/dL
- CRE (72 h, time 3 day): 0.2 mg/dL
- Ca (72 h, time 3 day): 11.3 mg/dL
- Cl (72 h, time 3 day): 105.2 meq/L
- DBIL (72 h, time 3 day): 0.014 mg/dL
- GLC (72 h, time 3 day): 179 mg/dL
- IP (72 h, time 3 day): 8.9 mg/dL
- K (72 h, time 3 day): 4.1 meq/L
- LDH (72 h, time 3 day): 64.4 IU/L
- Na (72 h, time 3 day): 143.6 meq/L
- PL (72 h, time 3 day): 149.8 mg/dL
- RALB (72 h, time 3 day): 2.7 g/dL
- TBIL (72 h, time 3 day): 0.066 mg/dL
- TC (72 h, time 3 day): 79 mg/dL
- TG (72 h, time 3 day): 79.2 mg/dL
- TP (72 h, time 3 day): 5.7 g/dL
- gamma-GTP (72 h, time 3 day): 1 IU/L
- TERMINAL_BW ([…], time 7 day): 272.6 g
- TERMINAL_BW ([…], time 14 day): 338.7 g
- TERMINAL_BW ([…], time 28 day): 414.9 g
- APTT ([…], time 7 day): 17 s
- Bas ([…], time 7 day): 0.4%
- Eos ([…], time 7 day): 1%
- Fbg ([…], time 7 day): 274.8 mg/dL
- Hb ([…], time 7 day): 13.6 g/dL
- Ht ([…], time 7 day): 41%
- Lym ([…], time 7 day): 80%
- MCH ([…], time 7 day): 20.8 pg
- MCHC ([…], time 7 day): 33.3%
- MCV ([…], time 7 day): 62.4 fL
- Mono ([…], time 7 day): 2.6%
- Neu ([…], time 7 day): 15.6%
- PT ([…], time 7 day): 13 s
- Plat ([…], time 7 day): 127.5 x10_4/uL
- RBC ([…], time 7 day): 657.4 x10_4/ul
- Ret ([…], time 7 day): 5.7%
- WBC ([…], time 7 day): 127.9 x10_2/uL
- APTT ([…], time 14 day): 17.6 s
- Bas ([…], time 14 day): 0.2%
- Eos ([…], time 14 day): 1%
- Fbg ([…], time 14 day): 284 mg/dL
- Hb ([…], time 14 day): 14.4 g/dL
- Ht ([…], time 14 day): 43.7%
- Lym ([…], time 14 day): 78.4%
- MCH ([…], time 14 day): 19.9 pg
- MCHC ([…], time 14 day): 32.8%
- MCV ([…], time 14 day): 60.7 fL
- Mono ([…], time 14 day): 1.8%
- Neu ([…], time 14 day): 18%
- PT ([…], time 14 day): 13 s
- Plat ([…], time 14 day): 124.7 x10_4/uL
- RBC ([…], time 14 day): 721.4 x10_4/ul
- Ret ([…], time 14 day): 4.4%
- WBC ([…], time 14 day): 108 x10_2/uL
- APTT ([…], time 28 day): 18.4 s
- Bas ([…], time 28 day): 0.2%
- Eos ([…], time 28 day): 1%
- Fbg ([…], time 28 day): 277 mg/dL
- Hb ([…], time 28 day): 15.8 g/dL
- Ht ([…], time 28 day): 47.1%
- Lym ([…], time 28 day): 80.2%
- MCH ([…], time 28 day): 19.4 pg
- MCHC ([…], time 28 day): 33.4%
- MCV ([…], time 28 day): 58 fL
- Mono ([…], time 28 day): 2%
- Neu ([…], time 28 day): 16%
- PT ([…], time 28 day): 13.6 s
- Plat ([…], time 28 day): 107.1 x10_4/uL
- RBC ([…], time 28 day): 813.4 x10_4/ul
- Ret ([…], time 28 day): 2.3%
- WBC ([…], time 28 day): 117.4 x10_2/uL
- KIDNEY_L ([…], time 7 day): 1.1 g
- KIDNEY_R ([…], time 7 day): 1.1 g
- KIDNEY_TOTAL ([…], time 7 day): 2.2 g
- KIDNEY_L ([…], time 14 day): 1.2 g
- KIDNEY_R ([…], time 14 day): 1.3 g
- KIDNEY_TOTAL ([…], time 14 day): 2.5 g
- KIDNEY_L ([…], time 28 day): 1.5 g
- KIDNEY_R ([…], time 28 day): 1.5 g
- KIDNEY_TOTAL ([…], time 28 day): 2.9 g
- LIVER ([…], time 7 day): 12.8 g
- LIVER ([…], time 14 day): 15.3 g
- LIVER ([…], time 28 day): 15.9 g
- A/G ([…], time 7 day): 0.9
- ALP ([…], time 7 day): 1890.2 IU/L
- ALT ([…], time 7 day): 43.2 IU/L
- AST ([…], time 7 day): 69.2 IU/L
- BUN ([…], time 7 day): 18.2 mg/dL
- CRE ([…], time 7 day): 0.2 mg/dL
- Ca ([…], time 7 day): 10.9 mg/dL
- Cl ([…], time 7 day): 103.8 meq/L
- DBIL ([…], time 7 day): 0.012 mg/dL
- GLC ([…], time 7 day): 189.4 mg/dL
- IP ([…], time 7 day): 8.1 mg/dL
- K ([…], time 7 day): 4.1 meq/L
- LDH ([…], time 7 day): 64.8 IU/L
- Na ([…], time 7 day): 142.2 meq/L
- PL ([…], time 7 day): 148.8 mg/dL
- RALB ([…], time 7 day): 2.6 g/dL
- TBIL ([…], time 7 day): 0.062 mg/dL
- TC ([…], time 7 day): 67.2 mg/dL
- TG ([…], time 7 day): 139.8 mg/dL
- TP ([…], time 7 day): 5.6 g/dL
- gamma-GTP ([…], time 7 day): 0.8 IU/L
- A/G ([…], time 14 day): 0.8
- ALP ([…], time 14 day): 1297.4 IU/L
- ALT ([…], time 14 day): 37 IU/L
- AST ([…], time 14 day): 66.4 IU/L
- BUN ([…], time 14 day): 16.6 mg/dL
- CRE ([…], time 14 day): 0.2 mg/dL
- Ca ([…], time 14 day): 11 mg/dL
- Cl ([…], time 14 day): 104.2 meq/L
- DBIL ([…], time 14 day): 0.012 mg/dL
- GLC ([…], time 14 day): 185.6 mg/dL
- IP ([…], time 14 day): 7.1 mg/dL
- K ([…], time 14 day): 3.9 meq/L
- LDH ([…], time 14 day): 58.8 IU/L
- Na ([…], time 14 day): 142.6 meq/L
- PL ([…], time 14 day): 149 mg/dL
- RALB ([…], time 14 day): 2.7 g/dL
- TBIL ([…], time 14 day): 0.056 mg/dL
- TC ([…], time 14 day): 72.8 mg/dL
- TG ([…], time 14 day): 131.2 mg/dL
- TP ([…], time 14 day): 5.8 g/dL
- gamma-GTP ([…], time 14 day): 1 IU/L
- A/G ([…], time 28 day): 0.8
- ALP ([…], time 28 day): 1151.4 IU/L
- ALT ([…], time 28 day): 40.6 IU/L
- AST ([…], time 28 day): 62 IU/L
- BUN ([…], time 28 day): 17 mg/dL
- CRE ([…], time 28 day): 0.3 mg/dL
- Ca ([…], time 28 day): 10.8 mg/dL
- Cl ([…], time 28 day): 105.2 meq/L
- DBIL ([…], time 28 day): 0.014 mg/dL
- GLC ([…], time 28 day): 186.6 mg/dL
- IP ([…], time 28 day): 6.7 mg/dL
- K ([…], time 28 day): 4 meq/L
- LDH ([…], time 28 day): 52 IU/L
- Na ([…], time 28 day): 143.2 meq/L
- PL ([…], time 28 day): 162.4 mg/dL
- RALB ([…], time 28 day): 2.8 g/dL
- TBIL ([…], time 28 day): 0.062 mg/dL
- TC ([…], time 28 day): 78 mg/dL
- TG ([…], time 28 day): 170 mg/dL
- TP ([…], time 28 day): 6.3 g/dL
- gamma-GTP ([…], time 28 day): 1.2 IU/L
